Where a SMILES comes first, the peptide text is derived from it. [ ]: non-standard residue; d: D form. Orn(N5-OH,N5-Ac) = CC(=O)N(O)CCC[C@H](N)C(=O)O
Assay: CD spectroscopy of siderophore-iron(III) complexes
Format: physicochemical
Conditions: for Optimal Fe^3+ complex configuration: CD, phosphate buffer pH 7.0, optical isomer Λ or Δ
Excerpt: To elucidate the configuration of the siderophore-iron(III) complexes, we used circular dichroism (CD) spectroscopy where the minimum and maximum with Cotton effect are expected in the range of 350–490 nm ([Winkelmann, 1991]; [Matsumoto et al., 2001]). For the Λ configuration, the minimum band in the CD spectrum should be present before the maximum. Since the Δ configuration is a mirror image of the Λ configuration, the maximum band appears first ([Winkelmann, 1991]). In the presence of the Fe^3+ salt, the natural siderophores and SL solution changed from colorless to yellow after several minutes. This indicates the presence of the siderophore-ferric iron complex and further confirms the metal-binding properties of these compounds ([Winkelmann, 1991]). Based on this observation, during the CD experiments, for every siderophore, we adjusted the incubation time at the optimal concentration, ranging from 40 to 90 min (see Supplementary Figure S1).
Figure 4 CD spectra of the natural (ferrichrome and feroxamine) and synthetic (SL and SC) siderophores with Fe^3+ salt solution in phosphate buffer (pH = 7.0).
CD spectra were recorded in aqueous buffer solution (100 mM phosphate buffer, pH 7.0), in the presence of 4 mM iron(III) salt solution (FeCl3 in the phosphate buffer). To obtain optimal recording conditions, siderophore concentrations were varied in the range 0.24–1.0 mM with an incubation time of 20–90 min (Supplementary Figure S1). In all CD experiments, the siderophore-Fe^3+ molar ratio of 1:1 was maintained. The spectra were collected using the Biokine MOS-450/AF-CD spectrometer equipped with the Xe lamp using a 0.1 cm CD cell. The acquisition duration time was 2 s with a resolution of 1 nm. The measurements were performed in 100 mM phosphate buffer, pH 7.0, room temperature, and wavelength range 300–500 nm. The presented CD spectra were smoothed with the Savitzky–Golay method using GraphPad and are the averages of three scans. Each CD experiment was conducted twice to confirm the repeatability of the spectra.

[1] = siderophore with Fe^3+ salt 1:1, 100 mM phosphate buffer pH 7.0, room temperature, 300-500 nm, average of three scans

For `CC(=O)N([O-])CCCCCNC(=O)CCC(=O)N([O-])CCCCCNC(=O)CCC(=O)N([O-])CCCCCN.[Fe+3]` [Feroxamine, feroxamine], the “Optimal Fe^3+ complex configuration” value was “Λ and Δ”.
With `CC(=O)N([O-])CCC[C@@H]1NC(=O)CNC(=O)CNC(=O)CNC(=O)[C@H](CCCN([O-])C(C)=O)NC(=O)[C@H](CCCN([O-])C(C)=O)NC1=O.[Fe+3]` [Ferrichrome] (cyclo(GGG[Orn(N5-OH,N5-Ac)][Orn(N5-OH,N5-Ac)][Orn(N5-OH,N5-Ac)])) the “Optimal Fe^3+ complex configuration” value was “Λ”, the “CD Wavelength Maximum” value [1] was 456 nm and the “CD Wavelength Minimum” value [1] was 360 nm.
In the case of “cyc(Asp-(Orn(Ac,OH))3-Gly-Lys(N3)) (head to tail) [SC, azido-Cyc(Asp-(Orn(Ac‚OH))3-GIy-Lys(N3)), cyclic hydroxamate siderophore mimic]”, the “CD Wavelength Maximum” value [1] is reported as 487 nm and the “Ferric iron binding (CD and color change)” value (with Fe^3+ salt solution, phosphate buffer pH 7.0) is reported as “cannot bind ferric iron”.

Source: paper PMC10864483, “Iron uptake pathway of Escherichia coli as an entry route for peptide nucleic acids conjugated with a siderophore mimic” (Frontiers in Microbiology, 2024)
